Reference: patent publication US5049686A, “Novel large-ring diamine platinum(II) and platinum(IV) chelates” (Warner-Lambert Company, priority 1989, dated 1991)

Experiments:
Assay type in all cases: cell-based, murine
L1210DDP5 = test: In vitro cytotoxicity, growth inhibition of resistant L1210 cell line L1210DDP5 over 72 hours; details: for ID50: 72 hours; for factor of crossresistance (resistance ratio): ID50 resistant / ID50 normal cell line, in parentheses, 4320 min
Method: (§1) ID50 values are the concentration of complex required to inhibit the in vitro growth of treated cells to a level of 50% of that for untreated cells over a 72-hour period. The cell lines are suspended in appropriate media at a concentration which results in the cells remaining in log phase growth throughout the treatment period. Serially diluted drug is added to duplicate wells containing the cell growth. After 72 hours of incubation of the cell lines in 5% CO2, the cells are counted and the ID50 values determined.
(§2) Resistance ratio values shown in Table 1 were calculated by dividing the ID50 values against the resistant cell lines by the ID50 values against the normal cell lines. The resistance ratio values shown in the table indicate a measure of the degree of resistance of the cell line to a particular drug.

L1210DACH = test: In vitro cytotoxicity, growth inhibition of Pt(DACH)Cl2-resistant L1210 cell line over 72 hours; details: for ID50 / factor of crossresistance (resistance ratio): L1210DACH; for ID50: 72 hours; for factor of crossresistance (resistance ratio): ID50 resistant / ID50 normal cell line, in parentheses; for factor of crossresistance (resistance ratio) / cross resistance to Pt(DACH)Cl2-resistant L1210 cells in culture: 4320 min
Method: as §1, §2

L1210S = test: In vitro cytotoxicity, growth inhibition of normal L1210 cell line over 72 hours; details: for ID50: normal L1210 cell line, 72 hours; for factor of crossresistance (resistance ratio): ID50 divided by ID50 against normal cell line, in parentheses, 4320 min
Method: as §1, §2

L1210PtR4 = test: In vitro cytotoxicity, growth inhibition of resistant L1210 cell line L1210PtR4 over 72 hours; details: for ID50: 72 hours; for factor of crossresistance (resistance ratio): ID50 resistant / ID50 normal cell line, in parentheses, 4320 min
Method: as §1, §2

[1] = system: cisplatin-resistant cells; test: In vitro activity against cisplatin-resistant L1210 cells compared with cisplatin; details: in words; for effectiveness against cisplatin-resistant cells: compared with cisplatin
Method: as §1, §2

L1210 cell lines = test: In vitro antitumor activity against L1210 cell lines compared with cisplatin; details: in words
Method: as §1, §2

With `N.N.[Cl][Pt][Cl]` [Cisplatin, cis-diaminedichloroplatinum(II), reference compound] the ID50 (L1210DDP5) was 5.63 µg/mL, the ID50 (L1210DACH) was 0.467 µg/mL and the ID50 (L1210S) was 0.34 µg/mL. For the same compound, the ID50 (L1210PtR4) was 3.61 µg/mL.
In the case of “(SP-4-2)-Dichloro(1,6-hexanediamine-N,N')-platinum [Example 2]”, the ID50 (L1210DDP5) is reported as 3.7 µg/mL, the “factor of crossresistance (resistance ratio)” value (“factor … (resistance ratio)” below) (L1210DDP5) is reported as 4 and the ID50 (L1210DACH) is reported as 2.13 µg/mL. The “factor … (resistance ratio)” value (L1210DACH) was 2.3, the “cross resistance to Pt(DACH)Cl2-resistant L1210 cells in culture” value (shortened to “cross resistance … in culture”) (L1210DACH) was 2.3 fold and the “factor … (resistance ratio)” value (L1210S) was 1. The ID50 (L1210S) was 0.93 µg/mL, the “effectiveness against cisplatin-resistant cells” value [1] was “more effective than cisplatin against cisplatin-resistant cells” and the “cross resistance to cisplatin” value [1] was “some degree of cross resistance to cisplatin”. The ID50 (L1210PtR4) was 2.8 µg/mL, the “factor … (resistance ratio)” value (L1210PtR4) was 3 and the “antitumor activity compared to cisplatin (potency and response)” value (L1210 cell lines) was “superior to cisplatin both in potency and response”.
For “(SP-4-2)-Dichloro(1,5-pentanediamine-N,N')-platinum [Example 1]”, the ID50 (L1210DDP5) was 1.58 µg/mL, the “factor … (resistance ratio)” value (L1210DDP5) was 3.7 and the ID50 (L1210DACH) was 1.17 µg/mL. The “factor … (resistance ratio)” value (L1210DACH) was 2.7, the “cross resistance … in culture” value (L1210DACH) was 2.7 fold and the “factor … (resistance ratio)” value (L1210S) was 1. For the same compound, the ID50 (L1210S) was 0.43 µg/mL, the “effectiveness against cisplatin-resistant cells” value [1] was “more effective than cisplatin against cisplatin-resistant cells” and the “cross resistance to cisplatin” value [1] was “some degree of cross resistance to cisplatin”. For the same compound, the ID50 (L1210PtR4) was 1.13 µg/mL, the “factor … (resistance ratio)” value (L1210PtR4) was 2.6 and the “antitumor activity compared to cisplatin (potency and response)” value (L1210 cell lines) was “superior to cisplatin both in potency and response”.
In the case of `NC1CCCCC1N.[Cl][Pt][Cl]` (stereo not drawn) [[Pt(trans-l-DACH)Cl2], [SP-4-2-(1R-trans)]-dichloro(1,2-cyclohexanediamine-N,N')platinum, reference compound], the ID50 (L1210DDP5) is reported as 0.176 µg/mL, the “factor … (resistance ratio)” value (L1210DDP5) is reported as 2 and the ID50 (L1210DACH) is reported as 2.67 µg/mL. The “factor … (resistance ratio)” value (L1210DACH) was 30, the “cross resistance … in culture” value (L1210DACH) was 30 fold and the “factor … (resistance ratio)” value (L1210S) was 1. For the same compound, the ID50 (L1210S) was 0.088 µg/mL, the ID50 (L1210PtR4) was 0.159 µg/mL and the “factor … (resistance ratio)” value (L1210PtR4) was 1.8.
